Assay results from ChEMBL document CHEMBL1125671, “Synthesis and antiviral activity of enantiomeric forms of cyclobutyl nucleoside analogues” (1991).

Key:
Assay type in all cases: functional
Mus musculus [1] = assay: oral efficacy in a mouse cytomegalovirus infection at 25 mg/kg/day dose; Value expressed as survivors/total tested = 1/10
Mus musculus [2] = assay: Subcutaneous efficacy in a mouse cytomegalovirus infection at 50 mg/kg/day dose; Value expressed as survivors/total tested = 10/10
Murid betaherpesvirus 1 = assay: compound was tested for antiherpes activity against MCMV(Smith) in tissue culture by plaque reduction assay; conditions: read-out: ID50 (the source's name)
Mus musculus [3] = assay: Mean day of death for total no. of dead mouse at 50 mg/kg/day dose
Mus musculus [4] = assay: Mean day of death for total no. of dead mouse at 12.5 mg/kg/day dose
Mus musculus [5] = assay: Mean day of death for total no. of dead mouse at 12.5 mg/kg/day dosep<0.05
Mus musculus [6] = assay: Subcutaneous efficacy in a mouse cytomegalovirus infection at 25 mg/kg/day dose; Value expressed as survivors/total tested = 10/10
Human betaherpesvirus 5 = assay: compound was tested for antiherpes activity against HCMV(AD 169) in tissue culture by plaque reduction assay; conditions: read-out: ID50 (the source's name)
Mus musculus [7] = assay: oral efficacy in a mouse cytomegalovirus infection at 12.5 mg/kg/day dose; Value expressed as survivors/total tested = 1/10
Mus musculus [8] = assay: Mean day of death for total no. of dead mouse at 25 mg/kg/day dosep<0.05
Mus musculus [9] = assay: Subcutaneous efficacy in a mouse cytomegalovirus infection at 100 mg/kg/day dose; Value expressed as survivors/total tested = 10/10
Mus musculus [10] = assay: oral efficacy in a mouse cytomegalovirus infection at 50 mg/kg/day dose; Value expressed as survivors/total tested = 5/10
Mus musculus [11] = assay: Subcutaneous efficacy in a mouse cytomegalovirus infection at 12.5 mg/kg/day dose; Value expressed as survivors/total tested = 7/10
Human alphaherpesvirus 1 = assay: compound was tested for antiherpes activity against HSV-1(Schooler) in tissue culture by plaque reduction assay; conditions: read-out: ID50 (the source's name)
Human alphaherpesvirus 2 = assay: compound was tested for antiherpes activity against HSV-2(186) in tissue culture by plaque reduction assay; conditions: read-out: ID50 (the source's name)
Human alphaherpesvirus 3 = assay: compound was tested for antiherpes activity against VZV(Ellen) in tissue culture by plaque reduction assay; conditions: read-out: ID50 (the source's name)
Mus musculus [12] = assay: Mean day of death for total no. of dead mouse at 25 mg/kg/day dose
Mus musculus [13] = assay: Subcutaneous efficacy in a mouse cytomegalovirus infection at 12.5 mg/kg/day dose; Value expressed as survivors/total tested = 5/10
Mus musculus [14] = assay: subcutaneous efficacy of compound in a lethal MCMV infection on mouse; conditions: sc, read-out: PD50
Mus musculus [15] = assay: Subcutaneous efficacy in a mouse cytomegalovirus infection at 50 mg/kg/day; Value expressed as survivors/total tested = 9/10
Mus musculus [16] = assay: Subcutaneous efficacy in a mouse cytomegalovirus infection at 25 mg/kg/day dose; Value expressed as survivors/total tested = 9/10
Mus musculus [17] = assay: oral efficacy in a mouse cytomegalovirus infection at 100 mg/kg/day dose; Value expressed as survivors/total tested = 10/10
Mus musculus [18] = assay: Subcutaneous efficacy in a mouse cytomegalovirus infection at 6.3 mg/kg/day dose; Value expressed as survivors/total tested = 4/10
Mus musculus [19] = assay: Mean day of death for total no. of dead mouse at 6.3 mg/kg/day dose
Mus musculus [20] = assay: Subcutaneous efficacy in a mouse cytomegalovirus infection at 12.5 mg/kg/day dose; Value expressed as survivors/total tested = 4/10
Mus musculus [21] = assay: oral efficacy in a mouse cytomegalovirus infection at 50 mg/kg/day dose; Value expressed as survivors/total tested = 6/10
Mus musculus [22] = assay: oral efficacy in a mouse cytomegalovirus infection at 25 mg/kg/day dose; Value expressed as survivors/total tested = 3/10

SMILES	IC50 (Murid betaherpesvirus 1)	Mean day of death for total dead (Mus musculus [3])	Mean day of death for total dead (Mus musculus [4])	IC50 (Human betaherpesvirus 5)	Survivors alive/total (Mus musculus [9])	IC50 (Human alphaherpesvirus 1)	IC50 (Human alphaherpesvirus 2)	IC50 (Human alphaherpesvirus 3)	other results
Nc1nc2c(ncn2COC(CO)CO)c(=O)[nH]1 [GANCICLOVIR]	4000 nM	4.4	3.6	2000 nM	10	40 nM	40 nM	2000 nM	Survivors alive/total (Mus musculus [1]): 1; Survivors alive/total (Mus musculus [2]): 10; Mean day of death for total dead (Mus musculus [5]): 5.7; Survivors alive/total (Mus musculus [6]): 10; Survivors alive/total (Mus musculus [7]): 1; Mean day of death for total dead (Mus musculus [8]): 4.8; Survivors alive/total (Mus musculus [10]): 5; Survivors alive/total (Mus musculus [11]): 7
Nc1nc(O)c2ncn(C3C[C@@H](CO)[C@@H]3CO)c2n1 (stereo partly specified)	200 nM	6	5.4	800 nM	10	20 nM	20 nM	20 nM	Mean day of death for total dead (Mus musculus [12]): 4; Survivors alive/total (Mus musculus [13]): 5; ED50 (Mus musculus [14]): 10 mg/kg/day; Survivors alive/total (Mus musculus [15]): 9; Survivors alive/total (Mus musculus [16]): 9
Nc1ncnc2c1ncn2C1C[C@H](CO)C1CO (stereo partly specified)				> 400000 nM		> 400000 nM	> 400000 nM	> 400000 nM	
Nc1nc(O)c2ncn(C3CC(CO)C3CO)c2n1 (stereo unspecified)	2000 nM			4000 nM		80 nM	40 nM	200 nM	
Nc1nc(O)c2ncn([C@H]3CC(CO)[C@@H]3CO)c2n1 (single isomer, unassigned)				> 377000 nM		> 377000 nM	> 377000 nM	> 377000 nM	
Nc1ncnc2c1ncn2C1CC(CO)C1CO (stereo unspecified)	2000 nM			800 nM		8000 nM	8000 nM	2000 nM	
Nc1ncnc2c1ncn2C1C[C@@H](CO)[C@@H]1CO (stereo partly specified)	800 nM	6.3	3.9	< 400 nM	10	2000 nM	2000 nM	2000 nM	Mean day of death for total dead (Mus musculus [12]): 3.6; Survivors alive/total (Mus musculus [2]): 10; Mean day of death for total dead (Mus musculus [5]): 8.8; Survivors alive/total (Mus musculus [6]): 10; Survivors alive/total (Mus musculus [17]): 10; Survivors alive/total (Mus musculus [18]): 4; Mean day of death for total dead (Mus musculus [19]): 4.4; Survivors alive/total (Mus musculus [20]): 4; Survivors alive/total (Mus musculus [21]): 6; Survivors alive/total (Mus musculus [22]): 3; Survivors alive/total (Mus musculus [7]): 1
